Test results taken from patent publication US8648042B2, “Pharmaceutical compositions” (priority 2011, dated 2014).

Experiments:
[1] = patients, intravenously before each fraction of radiation therapy; cited from earlier work
pUC119 plasmid DNA = assay: Protection of plasmid DNA from H2O2 and UV exposure (electrophoresis); assay type: biochemical; settings: 20 mM H2O2 + 20 mJ/m^2 UV; Amifostine 2000 μg/ml, GP-A 4000 μg/ml; FIG. 3
Experimental: In this example, we examined the ability of GP-A in protecting plasmid DNA from hydrogen peroxide (H2O2) and UV exposure, which was also an indicator of the ability of quenching free radicals because free radicals tend to attack DNA structure. Amifostine, GP-Amifostine and GP were respectively dissolved in dd-water at various concentrations.
The above-nine experimental groups were then mixed with 3 μl loading dye for electrophoresis in order to observe the integrity of the plasmid DNA.

[2] = cited from earlier work
[3] = cited from earlier work; remark: listed apart in the source
[4] = NSCLC patients, chemoradiation therapy, Arm 2; cited from earlier work

## NCCCNCCSP(=O)(O)O [Amifostine, S-2-(3-aminopropylamino)ethyl dihydrogen phosphorothioate]
[1]
  severity of acute and late xerostomia: significant reduction
pUC119 plasmid DNA
  protection ability against UV & H2O2 treated plasmid DNA: solid and slight protection ability
[2]; brain and spinal cord
  protection of brain and spinal cord from radiation damage: not protected
[2]; esophagus, lung, kidney, liver, bone marrow, immune system, skin, colon, small bowel, salivary gland, oral mucosa, testis
  protection of normal tissues from radiation damage (factor): ≤ 3
[2]; in vivo
  distribution between normal tissues and tumors: selectively concentrated in normal tissues but passively absorbed by tumors
[2]; tumors
  sparing of tumors from the effects of radiation or chemotherapy: no evidence that tumors were spared
[3]; human
  discharge from a human body: within one hour
[3]; patients, systemic administration
  undesirable side-effects of systemic administration: nausea, vomiting, emesis and hypotension, as well as flushing or feeling of warmth, chills or feeling of coldness, dizziness, somnolence, hiccups and sneezing
[4]
  Median survival time: 19 months
